Several values for one entry are separate records, joined by “and”; a condition that tells them apart may be missing. Equal values may be shown once.
Legend:
[1] = test system: UUO model of kidney fibrosis; assay: Unilateral ureteral obstruction (UUO) model of kidney fibrosis: kidney collagen 1A1 and collagen 3A1 expression by real-time PCR; format: in vivo, mice; details: for Collagen 3A1 (Normalized Expression) Mean / Collagen 1A1 (Normalized Expression) Mean: group mean; for Collagen 1A1 (Normalized Expression) / Collagen 3A1 (Normalized Expression): individual animals, 20 mg/kg
Summary of the method: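 Fibrosis induced by unilateral ureter ligation, groups of 8; anti-miR-21 compounds dosed at 20 mg/kg around surgery (days −3, −1, +5 or −5, −3, +3; repeat study subcutaneous at −5, −2, +3). Kidneys taken on day 10 or 11; Col1A1 and Col3A1 mRNA measured by real-time PCR, normalized to GAPDH and, in one study, also to sham.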

[2] = test system: model of ischemia reperfusion injury (IRI); assay: Unilateral ischemia reperfusion injury (IRI) model: kidney collagen 1A1 and collagen 3A1 expression; format: in vivo, mouse; details: for Collagen 3A1 (Normalized Expression) Mean / Collagen 1A1 (Normalized Expression) Mean: group mean; for Collagen 1A1 (Normalized Expression) / Collagen 3A1 (Normalized Expression): individual animals
Description: A model of ischemia reperfusion injury (IRI) is created in the mouse through unilateral or bilateral clamping of kidney arteries, which leads to tubule damage, inflammation, and fibrosis. Kidney dysfunction can occur either early (<5 days) or late (>7 days) in this model, with the early time points useful to test candidate agents for the treatment of acute kidney injury, and the later time points useful to model chronic fibrosis.
Anti-miR-21 compounds were tested in the unilateral IRI model. Unilateral IRI was induced for a period of 30 minutes. Treatment groups were as follows: sham IRI procedure; IRI with PBS administered subcutaneously; IRI with anti-miR-21 compound 25070 administered intraperitoneally at a dose of 20 mg/kg; the 2′-fluoro/2′-MOE modified anti-miR-21 25919 administered intraperitoneally at a dose of 20 mg/kg; and a 2′-fluoro/2′ modified mismatch anti-miR-21 (having three mismatches to the sequence of miR-21) 25319 administered intraperitoneally at a dose of 20 mg/kg. PBS or anti-miR compound was administered on days 5, 6, and 7 following IRI, and animals were sacrificed 14 days after IRI. As anti-miR compound is administered 5 days following the injury to the kidney, or later, when fibrosis has already occurred to some extent, this treatment regimen is considered a therapeutic regimen, rather than a prophylactic regimen.
Kidney tissue was collected for analysis of collagen 1A1 and collagen 3A1 expression (shown in Table 0), and collagen area fraction (shown in Table P).
A similar study was performed with the same treatment groups and additional days of treatment. In this study, treatments were administered intraperitoneally at days 5, 6, 7, 14, and 21 following the IRI procedure Animals were sacrificed on Day 27, and kidney tissue was collected for analysis of collagen 1A1 and collagen 3A1 expression, as well as collagen area fraction.
In order to assess the flexibility of administration of the anti-miR-21 compound 25070, the activity of the compound in the 14 day study above, where anti-miR-21 was administered at […] following the IRI procedure, to a different 14 day study where anti-miR-21 was administered intraperitoneally at days 3, 5, and 7 following the IRI procedure.

IR/Nx model mice = assay: Survival rate of IR/Nx model mice two days after nephrectomy; format: in vivo
Description: The survival rate of IR/Nx model mice two days after nephrectomy was determined across six different experiments to determine if administration of anti-miR-21 compounds increases survival. In the first three experiments, anti-miR-21 compound was administered on days 5, 6, and 7 after ischemia reperfusion injury, and nephrectomy occurred on day 10 or day 11. In the second three experiments, anti-miR-21 compound was administered on days 2, 3, and 4, and nephrecromy occurred on day 7.

[3] = Table K, UUO mice, 20 mg/kg at days -3, -1, +5 (prophylactic), kidney at day 11, real-time PCR normalized to GAPDH then sham
[4] = Table L, repeat UUO study, 20 mg/kg SC, prophylactic
[5] = Table M, UUO, 25070 20 mg/kg s.c. 5 and 2 days prior to and 3 days after UUO, irbesartan PO daily days 0-7, sacrifice Day 10
[6] = meta-analysis of UUO studies, 20 mg/kg at days -3, -1, +5, kidney at day 11
[7] = repeated UUO study, subcutaneously 20 mg/kg, prophylactic
[8] = Table O, unilateral IRI 30 minutes, 20 mg/kg intraperitoneally on days 5, 6, 7 (therapeutic), sacrifice 14 days after IRI, 20 mg/kg
[9] = IRI mouse, 14 day study, dosing Day 5, 6, 7, relative to sham
[10] = IRI mouse, 14 day study, intraperitoneal dosing Day 3, 5, 7, relative to sham
[11] = unilateral IRI mouse, 20 mg/kg intraperitoneally on days 5, 6, 7, 14, and 21, kidney, sacrificed Day 27
[12] = unilateral IRI mouse, 20 mg/kg intraperitoneally on days 5, 6, 7, 14, and 21, kidney, sacrificed Day 27, 20 mg/kg

For “AECSATCSAGTCSTGAUSAAGCSTAE (ACATCAGTCTGATAAGCTA; modified nucleosides, phosphorothioate linkages, chemistry not fully specified) [Compound 25070]”, the “Collagen 3A1 (Normalized Expression) Mean” value ([1]; Table K, UUO mice, 20 mg/kg at days -3, -1, +5, kidney at day 11, UUO-PBS mean 87.2) was 55.5, the “Collagen 1A1 (Normalized Expression) Mean” value ([1]; Table K, UUO mice, 20 mg/kg at days -3, -1, +5, kidney at day 11, UUO-PBS mean 114.9) was 81.0 and the “Collagen 1A1 (Normalized Expression)” value [1, 3] was 67.7 and 97.7 and 88.8 and 95.9 and 71.4 and 44.5 and 73.0 and 109.4. For the same sequence, the “Collagen 3A1 (Normalized Expression)” value [1, 3] was 36.4 and 75.6 and 47.3 and 55.5 and 63.3 and 28.5 and 64.2 and 72.9, the “Collagen 3A1 (Normalized Expression) Mean” value ([1]; Table L, repeat UUO study, 20 mg/kg SC, prophylactic, UUO-PBS mean 58.8) was 42.4 and the “Collagen 1A1 (Normalized Expression) Mean” value ([1]; Table L, repeat UUO study, 20 mg/kg SC, prophylactic, UUO-PBS mean 74.3) was 30.2. The “Collagen 1A1 (Normalized Expression)” value [1, 4] was 13.9 and 9.2 and 32.3 and 57.2 and 47.6 and 26.1 and 35.0 and 20.4, the “Collagen 3A1 (Normalized Expression)” value [1, 4] was 34.9 and 47.4 and 25.3 and 38.0 and 47.9 and 54.3 and 56.1 and 35.2 and the “Collagen 3A1 (Normalized Expression) Mean” value ([1]; Table M, UUO, 25070 20 mg/kg s.c., irbesartan PO daily days 0-7, Day 10, UUO-PBS 93.2, Tween/MC vehicle 132.4) was 53.7. For the same sequence, the “Collagen 1A1 (Normalized Expression) Mean” value ([1]; Table M, UUO, 25070 20 mg/kg s.c., irbesartan PO daily days 0-7, Day 10, UUO-PBS 129.6, Tween/MC vehicle 150.2) was 64.2, the “Collagen 1A1 (Normalized Expression)” value [1, 5] was 87.5 and 67.4 and 22.2 and 61.9 and 42.0 and 69.2 and 68.4 and 95.2 and the “Collagen 3A1 (Normalized Expression)” value [1, 5] was 38.6 and 56.9 and 77.2 and 50.7 and 76.4 and 49.7 and 44.3 and 35.9. For the same sequence, the “reduction in Col3a1 expression (significance)” value ([1]; UUO, comparison with irbesartan, sacrifice Day 10) was “statistically significant reductions”, the “reduction in Col1A1 expression relative to saline-treated animals (significance)” value ([1]; UUO, comparison with irbesartan, sacrifice Day 10, p<0.05 by one-way ANOVA) was “statistically significant reduction” and the “reduction in collagen expression (in words)” value ([1]; meta-analysis of UUO studies, 20 mg/kg at days -3, -1, +5) was “greatest potency”. The “inhibition of collagen 1A1” value [1, 6] was 40%, the “inhibition of collagen 3A1” value [1, 6] was 30% and the “collagen 1A1 expression (in words)” value [1, 7] was “potent inhibitor of collagen 1A1 and collagen 3A1 expression”. For the same sequence, the “collagen 3A1 expression (in words)” value [1, 7] was “potent inhibitor of collagen 1A1 and collagen 3A1 expression”, the “reduction of collagen expression (collagen 1A1 or collagen 3A1, significance)” value ([2]; IRI, 14 day studies, either dosing schedule (days 5, 6, 7 or days 3, 5, 7)) was “statistically significant reduction of collagen expression with either dosing schedule” and the “Collagen 3A1 (Normalized Expression) Mean” value ([2]; Table O, unilateral IRI, 20 mg/kg intraperitoneally on days 5, 6, 7, day 14, IRI-PBS mean 63.9) was 34.2. The “Collagen 1A1 (Normalized Expression) Mean” value ([2]; Table O, unilateral IRI, 20 mg/kg intraperitoneally on days 5, 6, 7, day 14, IRI-PBS mean 85.1) was 50.2, the “Collagen 1A1 (Normalized Expression)” value [2, 8] was 81.7 and 57.4 and 37.9 and 55.3 and 22.3 and 52.4 and 53.0 and 41.5 and the “Collagen 3A1 (Normalized Expression)” value [2, 8] was 57.8 and 18.1 and 39.3 and 36.0 and 20.6 and 38.6 and 33.4 and 29.7. For the same sequence, the “Collagen 1A1 (Normalized Expression) Mean” value [2, 9] was 24.5, the “Collagen 3A1 (Normalized Expression) Mean” value [2, 9] was 26.2 and the “Collagen 1A1 (Normalized Expression) Mean” value [2, 10] was 27.2. For the same sequence, the “Collagen 3A1 (Normalized Expression) Mean” value [2, 10] was 27.9, the “Collagen 1A1 (Normalized Expression) Mean” value [2, 11] was 31.4 and the “Collagen 3A1 (Normalized Expression) Mean” value [2, 11] was 20.8. For the same sequence, the “Collagen 1A1 (Normalized Expression)” value [2, 9] was 21.7 and 22.8 and 15.8 and 27.6 and 27.1 and 29.3 and 10.8 and 21.5 and 29.9 and 35.0 and 28.3 and 24.2, the “Collagen 3A1 (Normalized Expression)” value [2, 9] was 24.9 and 26.3 and 13.6 and 25.4 and 32.7 and 29.9 and 9.7 and 22.2 and 33.2 and 35.4 and 32.3 and 28.9 and the “Collagen 1A1 (Normalized Expression)” value [2, 10] was 37.5 and 21.9 and 35.3 and 26.0 and 24.9 and 16.8 and 30.8 and 34.3 and 36.8 and 9.4 and 28.0 and 24.6. The “Collagen 3A1 (Normalized Expression)” value [2, 10] was 35.3 and 23.6 and 32.1 and 25.1 and 31.3 and 18.6 and 30.3 and 37.6 and 40.0 and 9.5 and 23.2 and 28.7, the “Collagen 1A1 (Normalized Expression)” value [2, 12] was 26.4 and 37.4 and 41.9 and 36.8 and 14.1 and 27.7 and 29.4 and 37.6 and the “Collagen 3A1 (Normalized Expression)” value [2, 12] was 16.4 and 27.0 and 28.5 and 19.6 and 11.3 and 19.3 and 21.4 and 23.1. The “Survival rate 2 days after Nx, Summary (day 10/11 Nx)” value (IR/Nx model mice; Studies 1-3 pooled, Nx day 10/11, dosing days 5, 6, and 7) was 80% (29/36), the “Survival rate 2 days after Nx, Summary (day 7 Nx)” value (IR/Nx model mice; Studies 4-6 pooled, Nx day 7, dosing days 2, 3, and 4) was 69% (25/36) and the “Survival rate 2 days after Nx” value (IR/Nx model mice; Study 1, Nx Day 10, 30 mg/kg on days 5, 6, and 7 after IR) was 91.7%. For the same sequence, the “Survival rate 2 days after Nx” value (IR/Nx model mice; Study 2, Nx Day 11, 30 mg/kg on days 5, 6, and 7 after IR) was 83.3%, the “Survival rate 2 days after Nx” value (IR/Nx model mice; Study 3, Nx Day 10, 20 mg/kg on days 5, 6, and 7 after IR) was 66.6% and the “Survival rate 2 days after Nx” value (IR/Nx model mice; Study 4, Nx Day 7, 20 mg/kg on days 2, 3, and 4 after IR) was 75%. For the same sequence, the “Survival rate 2 days after Nx” value (IR/Nx model mice; Study 5, Nx Day 7, 20 mg/kg on days 2, 3, and 4 after IR) was 66.7%, the “Survival rate 2 days after Nx” value (IR/Nx model mice; Study 6, Nx Day 7, 20 mg/kg on days 2, 3, and 4 after IR) was 66.7% and the “survival rate two days after nephrectomy” value (IR/Nx model mice; first three experiments, dosing days 5, 6, 7, nephrectomy on day 10 or day 11) was 80%. The “survival rate two days after nephrectomy” value (IR/Nx model mice; second three experiments, dosing days 2, 3, 4, nephrectomy on day 7) was 69%.

From US20120270928A1, “MICRORNA COMPOUNDS AND METHODS FOR MODULATING MIR-21 ACTIVITY” (REGULUS THERAPEUTICS INC., priority 2011, published 2012)
